Test results taken from patent US20060025485A1, “Hydroxybenazamide compounds for treatment of cancer” (priority 2004, published 2006).

Columns and labels:
in vitro [1] = conditions: human, BON cells
Method: (§1) Cells tested (H727 and BON) were harvested by trypsinization and plated at a cell density of 3,000 cells/well of each microtiter plate. Cells were grown for 4 hrs at 37° C., with 5% CO2 in a humidified incubator to allow cell attachment to occur before compound addition. […] 10 μl of each compound stock was added to duplicate microtiter plates for each cell line. The final concentration of DMSO in all wells was 1%. To test 200 μM, 2% DMSO was added to each well. Data was compared to the effect of 2% DMSO. All compounds were tested in duplicate. Cells were incubated with the test compounds for 72 hrs before reading the assay. Then processing and calculation were performed according to manufacturer's directions for Cell Titer Glo Assay (Promega, Madison, Wis.).

in vitro [2] = conditions: human, H727 cells
Method: as §1

Chromogranin A = test: Western analysis of chromogranin A, BON-raf cells treated with estradiol; type: cell-based, human
Method: Usually, carcinoid tumors secrete high levels of both chromogranin A and serotonin due to disregulated hormone production. Similarly, BON cells treated with control or estradiol, and BON-raf cells treated with control had high levels of the NE marker chromogranin A as determined by Western analysis. […] In addition, BON and BON-raf cells were tested for serotonin secretion by ELISA after treatment with control or estradiol.
Cell culture. Human pulmonary carcinoid cells (NCI-H727) were obtained from American Type Culture Collection (Manassas, Va.) and human pancreatic carcinoid tumor cells, BON a generous gift of Drs. Evers and Townsend (Parekh et al., 1994), were maintained in RPMI 1640 and D-MEM-F12 media (Life Technologies, Rockville, Md.) respectively supplemented with 10% Fetal Bovine Serum (Sigma, St. Louis, Mo.), 100 IU/ml penicillin and 100 μg/ml streptomycin (Life Technologies) in a humidified atmosphere of 5% CO2 in air at 37° C. The maintenance of BON-raf cells and the activation of Raf-1 were followed as described previously (Sippel et al., 2003; Sippel and Chen, 2002; McMahon, 2001).
Western blot analysis. Cellular extracts were prepared and quantified by BCA protein assay kit (Pierce, Rockford, Ill.) as previously described (Sippel et al., 2003). 30-50 μg of denatured proteins from each sample underwent electrophoresis on a SDS-polyacrylamide gel and transferred to a nitrocellulose membranes (Schleicher and Schuell, Keene, N.H.). Membranes were blocked for 1 hr in milk solution (1×PBS, 5% non-fat dry milk, 0.05% Tween-20) and then incubated at 4° C. overnight with primary antibodies. The following primary antibody dilutions were used: phospho-ERK 1/2 (1:1,000); phospho-MEK (1:1,000); phospho-Raf-1 (Serine338) (1:1,000); p21 and p18, (1:1,000); (Cell Signal Technology, Beverly, Mass.), Chromogranin A (1:2,000; Zymed Laboratories, San Francisco, Calif.); MASH-1 (1:1000, BD Pharmingen) and G3PDH (1:10,000; Trevigen, Gaithersburg, Md.). After primary antibody incubation, membranes were washed 3×5 min in PBS-T wash buffer (1×PBS, 0.05% Tween 20). […]

[3] = test system: c-Raf as well as MEK and ERK; conditions: human monocytic THP-1 cells; cited from earlier work

SMILES: COc1cccc2c1C(=O)c1c(O)c3c(c(O)c1C2=O)C[C@@](O)(C(=O)CO)C[C@@H]3O[C@H]1C[C@H](N)[C@H](O)[C@H](C)O1 [Doxorubicin]
- IC50 at 72 h (in vitro [1]): 1.4 µM
- IC50 at 72 h (in vitro [2]): 1.1 µM

SMILES: C[C@]12CC[C@@H]3c4ccc(O)cc4CC[C@H]3[C@@H]1CC[C@@H]2O [Estradiol]
- reduction of chromogranin A levels (Chromogranin A; 2 days): 31%
- reduction of chromogranin A levels (Chromogranin A; 4 days): 68%
- reduction of chromogranin A levels (Chromogranin A; 6 days): 50%

SMILES: COc1nccc(-c2c(-c3ccc(F)cc3)ncn2C2CCC(O)CC2)n1 (stereo not drawn) [SB239063]
- activation of c-Raf, MEK and ERK [3]: activates c-Raf as well as MEK and ERK
